# Data as given in article PMC6848912 (British Journal of Clinical Pharmacology, 2019).
# What was measured:
# [1] = Population pharmacokinetic analysis; format: in vivo
# [2] = cited from earlier work
# [3] = Inc. data on file, cited from earlier work
# [4] = in combination with carboplatin + paclitaxel; cited from earlier work
# [5] = concurrent administration of carboplatin + paclitaxel
# [6] = nonparametric bootstrap of final PPK model
compound,measurement,setting,value
"NS(=O)(=O)OC[C@@H]1C[C@@H](n2ccc3c(N[C@H]4CCc5ccccc54)ncnc32)C[C@@H]1O [pevonedistat, Pevonedistat]",average increase in pevonedistat exposure (AUC),[1]; [5],79%
same,"average increase in pevonedistat exposure (AUC), fold",[1]; [5],1.79 fold
same,"impact of race, sex, age, tumour type, mild or moderate renal impairment (CrCL ≥30 mL/min), mild hepatic impairment on pevonedistat PK",[1]; covariate analysis,had no impact on pevonedistat PK
same,"IIV_CL (interindividual variability), typical value",[1]; final PPK model,36.6 %CV
same,"IIV_Q, typical value",[1]; final PPK model,60.5 %CV
same,"IIV_Vc, typical value",[1]; final PPK model,36.6 %CV
same,"IIV_Vp, typical value",[1]; final PPK model,36.9 %CV
same,"Albumin on Q (exponent), typical value","[1]; final PPK model, (ALB/40)^θ13",1.45
same,"BSA on Q (exponent), typical value","[1]; final PPK model, set the same as BSA on CL",1.33
same,"BSA on Vp (exponent), typical value","[1]; final PPK model, set the same as BSA on Vc",1.39
same,"BSA on Vc (exponent), typical value","[1]; final PPK model, set the same as BSA on Vp",1.39
same,Vd,"[1]; human, plasma, intravenous",117 L
same,"Albumin on Q, bootstrap median",[1]; [6],1.45
same,"BSA on Q, bootstrap median",[1]; [6],1.33
same,"BSA on Vc, bootstrap median",[1]; [6],1.39
same,"BSA on Vp, bootstrap median",[1]; [6],1.39
same,"IIV_CL, bootstrap median",[1]; [6],35.9 %CV
same,"IIV_Q, bootstrap median",[1]; [6],60.2 %CV
same,"IIV_Vc, bootstrap median",[1]; [6],36.6 %CV
same,"IIV_Vp, bootstrap median",[1]; [6],36.7 %CV
same,"Q, bootstrap median",[1]; [6],22 L/h
same,"Vc, bootstrap median",[1]; [6],115 L
same,"Vp, bootstrap median",[1]; [6],121 L
same,dose linearity of PK (AUC from time 0 to 24 hours vs dose),[2]; dose from 25 to 278 mg/m^2,linear
same,drug accumulation,[2]; once-daily dosing for 5 consecutive days or intermittent dosing,little or no notable drug accumulation
same,renal clearance contribution to total systemic clearance,[3]; ref Millennium Pharmaceuticals,< 5%
same,"renal elimination pathway, share of total plasma clearance",[3]; ref Takeda Millennium Pharmaceuticals,2.5%
same,maximum tolerated dose (MTD) / recommended Phase II dose,[4],20 mg/m^2
